Data on 24 compounds can be found in patent publication US20240199587A1, “HETEROCYCLIC COMPOUNDS” (Hoffmann-La Roche Inc., priority 2021, published 2024).

pIC50: −log10 of the molar value.

The assay concerns the target T1, MAGL (Homo sapiens, UniProt Q99685).
T1 sequence (Q99685 1-303): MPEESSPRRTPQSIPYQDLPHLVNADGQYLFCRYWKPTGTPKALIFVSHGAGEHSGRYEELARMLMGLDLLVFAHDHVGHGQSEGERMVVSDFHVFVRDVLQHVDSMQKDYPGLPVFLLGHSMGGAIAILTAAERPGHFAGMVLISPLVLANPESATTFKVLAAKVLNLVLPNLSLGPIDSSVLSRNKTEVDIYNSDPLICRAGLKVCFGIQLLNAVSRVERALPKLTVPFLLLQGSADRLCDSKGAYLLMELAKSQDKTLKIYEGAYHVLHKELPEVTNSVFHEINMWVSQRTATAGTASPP
Put plainly: 2-AG assay (MAGL inhibitory activity, hydrolysis of 2-arachidonoylglycerol to arachidonic acid followed by mass spectrometry). The conditions noted are these: 8 μM 2-arachidonoylglycerol, 15 min pre-incubation, 30 min incubation at RT, RapidFire MS readout. The class given is biochemical. An outline of the steps:
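Arachidonic acid released from 8 μM 2-arachidonoylglycerol was quantified by online SPE triple-quadrupole MS (negative ESI, 303.1→259.1), normalised to d8-arachidonic acid internal standard. Reaction ran 30 min at RT after 15 min RT compound pre-incubation with […] MAGL in TRIS/EDTA/Tween-20 buffer, 2.5% DMSO.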
In the case of `CC(C)(C)Cn1nncc1-c1ccc(C2CN(C(=O)N3CC4(CC(n5cncn5)C4)C3)C2)cc1` [Example 417, [3-[4-[3-(2,2-dimethylpropyl)triazol-4-yl]phenyl]azetidin-1-yl]-[6-(1,2,4-triazol-1-yl)-2-azaspiro[3.3]heptan-2-yl]methanone], the pIC50 is 6.45. Under `O=C(N1CC(C23CC(c4nnc(C5(C(F)(F)F)CC5)[nH]4)(C2)C3)C1)N1CC2(CC(n3cnc(C(F)(F)F)n3)C2)C1` [Example 418, [3-[3-[5-[1-(trifluoromethyl)cyclopropyl]-4H-1,2,4-triazol-3-yl]-1-bicyclo[1.1.1]pentanyl]azetidin-1-yl]-[6-[3-(trifluoromethyl)-1,2,4-triazol-1-yl]-2-azaspiro[3.3]heptan-2-yl]methanone] stands 8.32.

In turn, `O=C(N1CC(C23CC(c4nnc(C5(C(F)(F)F)CC5)[nH]4)(C2)C3)C1)N1CC2(CC(n3cnc(C4CC4)n3)C2)C1` [Example 419, [6-(3-cyclopropyl-1,2,4-triazol-1-yl)-2-azaspiro[3.3]heptan-2-yl]-[3-[3-[5-[1-(trifluoromethyl)cyclopropyl]-4H-1,2,4-triazol-3-yl]-1-bicyclo[1.1.1]pentanyl]azetidin-1-yl]methanone] gave a negative-log IC50 (pIC50) of 8.61.

In turn, `O=C(N1CC(C23CC(CNC4(C(F)(F)F)CC4)(C2)C3)C1)N1CC2(CC(n3cnc(C(F)(F)F)n3)C2)C1` [Example 420, [3-[3-[[[1-(trifluoromethyl)cyclopropyl]amino]methyl]-1-bicyclo[1.1.1]pentanyl]azetidin-1-yl]-[6-[3-(trifluoromethyl)-1,2,4-triazol-1-yl]-2-azaspiro[3.3]heptan-2-yl]methanone] had a negative-log IC50 (pIC50) of 9.13.

In turn, `O=C(N1CC(C23CC(NCC4(C(F)(F)F)CC4)(C2)C3)C1)N1CC2(CC(n3cnc(C(F)(F)F)n3)C2)C1` [Example 421, [3-[3-[[1-(trifluoromethyl)cyclopropyl]methylamino]-1-bicyclo[1.1.1]pentanyl]azetidin-1-yl]-[6-[3-(trifluoromethyl)-1,2,4-triazol-1-yl]-2-azaspiro[3.3]heptan-2-yl]methanone] had a pIC50 of 9.12. This pIC50 and that of the compound before are within 0.2 log units of each other. For `O=C(N1CC(c2ccc(N3CC(C(F)(F)F)C3)nc2)C1)N1CC2(CC(n3cnc(C(F)(F)F)n3)C2)C1` [Example 422, [3-[6-[3-(trifluoromethyl)azetidin-1-yl]-3-pyridyl]azetidin-1-yl]-[6-[3-(trifluoromethyl)-1,2,4-triazol-1-yl]-2-azaspiro[3.3]heptan-2-yl]methanone], the negative logarithm of the IC50 (pIC50) was 8.55. Under `O=C(N1CC(c2cnc(N3CC(C(F)(F)F)C3)nc2)C1)N1CC2(CC(n3cnc(C(F)(F)F)n3)C2)C1` [Example 423, [3-[2-[3-(trifluoromethyl)azetidin-1-yl]pyrimidin-5-yl]azetidin-1-yl]-[6-[3-(trifluoromethyl)-1,2,4-triazol-1-yl]-2-azaspiro[3.3]heptan-2-yl]methanone] stands 7.41; under `O=C(N1CC(c2ccc(NCC3(C(F)(F)F)CC3)nc2)C1)N1CC2(CC(n3cnc(C(F)(F)F)n3)C2)C1` [Example 424, [3-[6-[[1-(trifluoromethyl)cyclopropyl]methylamino]-3-pyridyl]azetidin-1-yl]-[6-[3-(trifluoromethyl)-1,2,4-triazol-1-yl]-2-azaspiro[3.3]heptan-2-yl]methanone], 9.80; under `CC1(Cc2nnc(-c3ccc(C4CN(C(=O)N5CC6(CC(n7cnc(C(F)(F)F)n7)C6)C5)C4)cc3)[nH]2)CC1` [Example 425, [3-[4-[5-[(1-methylcyclopropyl)methyl]-4H-1,2,4-triazol-3-yl]phenyl]azetidin-1-yl]-[6-[3-(trifluoromethyl)-1,2,4-triazol-1-yl]-2-azaspiro[3.3]heptan-2-yl]methanone], 8.26. Regarding `O=C(N1CC(c2ccc(N3CC[C@H](C(F)(F)F)C3)nc2)C1)N1CC2(CC(n3cnc(C(F)(F)F)n3)C2)C1` [Example 426, [3-[6-[(3S)-3-(trifluoromethyl)pyrrolidin-1-yl]-3-pyridyl]azetidin-1-yl]-[6-[3-(trifluoromethyl)-1,2,4-triazol-1-yl]-2-azaspiro[3.3]heptan-2-yl]methanone], the negative logarithm of the IC50 (pIC50) is 9.15. Compared with the last compound, the pIC50 is 0.89 log units higher.

On to `O=C(N1CC(c2ccc(N3CC[C@@H](C(F)(F)F)C3)nc2)C1)N1CC2(CC(n3cnc(C(F)(F)F)n3)C2)C1` [Example 427, [3-[6-[(3R)-3-(trifluoromethyl)pyrrolidin-1-yl]-3-pyridyl]azetidin-1-yl]-[6-[3-(trifluoromethyl)-1,2,4-triazol-1-yl]-2-azaspiro[3.3]heptan-2-yl]methanone], for which the negative-log IC50 (pIC50) is 9.28.

The compound `O=C(N1CC(c2ccc(NCC3CS(=O)(=O)C3)nc2)C1)N1CC2(CC(n3cnc(C(F)(F)F)n3)C2)C1` [Example 428, [3-[6-[(1,1-dioxothietan-3-yl)methylamino]-3-pyridyl]azetidin-1-yl]-[6-[3-(trifluoromethyl)-1,2,4-triazol-1-yl]-2-azaspiro[3.3]heptan-2-yl]methanone] showed a pIC50 of 7.23. Under `NC(=O)c1ccccc1-c1ccc(C2CN(C(=O)N3CC4(CC(n5cnc(C(F)(F)F)n5)C4)C3)C2)cc1` [Example 429, 2-[4-[1-[6-[3-(trifluoromethyl)-1,2,4-triazol-1-yl]-2-azaspiro[3.3]heptane-2-carbonyl]azetidin-3-yl]phenyl]benzamide] stands 9.18; under `CS(=N)(=O)c1ccc(CC2CC3(C2)CN(C(=O)N2CC4(CC(n5cnc(C(F)(F)F)n5)C4)C2)C3)cc1` (stereo not drawn) [Example 430, [6-[[4-(methylsulfonimidoyl)phenyl]methyl]-2-azaspiro[3.3]heptan-2-yl]-[6-[3-(trifluoromethyl)-1,2,4-triazol-1-yl]-2-azaspiro[3.3]heptan-2-yl]methanone], 7.76.

Compound `CS(=N)(=O)c1cccc(CC2CC3(C2)CN(C(=O)N2CC4(CC(n5cnc(C(F)(F)F)n5)C4)C2)C3)c1` (stereo not drawn) [Example 431, [6-[[3-(methylsulfonimidoyl)phenyl]methyl]-2-azaspiro[3.3]heptan-2-yl]-[6-[3-(trifluoromethyl)-1,2,4-triazol-1-yl]-2-azaspiro[3.3]heptan-2-yl]methanone] gave a negative logarithm of the IC50 (pIC50) of 7.99. The figure for `O=C(N1CC(C23CC(c4nnc(C5CC5)[nH]4)(C2)C3)C1)N1CC2(CC(n3cnc(C4CC4)n3)C2)C1` [Example 432, [6-(3-cyclopropyl-1,2,4-triazol-1-yl)-2-azaspiro[3.3]heptan-2-yl]-[3-[3-(5-cyclopropyl-4H-1,2,4-triazol-3-yl)-1-bicyclo[1.1.1]pentanyl]azetidin-1-yl]methanone] is 8.08; for `O=C(N1CC(C23CC(c4nnc(C5CC5)[nH]4)(C2)C3)C1)N1CC2(CC(n3cnc(C(F)(F)F)n3)C2)C1` [Example 433, [3-[3-(5-cyclopropyl-4H-1,2,4-triazol-3-yl)-1-bicyclo[1.1.1]pentanyl]azetidin-1-yl]-[6-[3-(trifluoromethyl)-1,2,4-triazol-1-yl]-2-azaspiro[3.3]heptan-2-yl]methanone] it is 7.36. The figure for `O=C(N1CC2(CC(n3cnc(C4CC4)n3)C2)C1)N1CC2(CCN(Cc3ccc(C(F)(F)F)nc3)C2)C1` [Example 434] is 8.47; for `O=C(N1CC(C23CC(c4nnc(CC(F)(F)F)o4)(C2)C3)C1)N1CC2(CC(n3cnc(C4CC4)n3)C2)C1` [Example 435, [6-(3-cyclopropyl-1,2,4-triazol-1-yl)-2-azaspiro[3.3]heptan-2-yl]-[3-[3-[5-(2,2,2-trifluoroethyl)-1,3,4-oxadiazol-2-yl]-1-bicyclo[1.1.1]pentanyl]azetidin-1-yl]methanone] it is 8.11. The figure for `O=C(N1CC(C23CC(c4nnc(C5CC5)o4)(C2)C3)C1)N1CC2(CC(n3cnc(C4CC4)n3)C2)C1` [Example 436, [3-[3-(5-cyclopropyl-1,3,4-oxadiazol-2-yl)-1-bicyclo[1.1.1]pentanyl]azetidin-1-yl]-[6-(3-cyclopropyl-1,2,4-triazol-1-yl)-2-azaspiro[3.3]heptan-2-yl]methanone] is 8.01; for `O=C(N1CC2(CC(n3cnc(C4CC4)n3)C2)C1)N1CC2(CCN(Cc3cnc(C(F)(F)F)cn3)C2)C1` [Example 437] it is 8.20; for `O=C(N1CC2(CC(n3cnc(C4CC4)n3)C2)C1)N1CC2(CCN(Cc3ccc(C(F)(F)F)nn3)C2)C1` [Example 438, [6-(3-cyclopropyl-1,2,4-triazol-1-yl)-2-azaspiro[3.3]heptan-2-yl]-[7-[[6-(trifluoromethyl)pyridazin-3-yl]methyl]-2,7-diazaspiro[3.4]octan-2-yl]methanone] it is 7.83. `O=C(N1CC2(CC(n3cnc(C4CC4)n3)C2)C1)N1CC2(CCN(Cc3ccc(C(F)(F)F)cn3)C2)C1` [Example 439, [6-(3-cyclopropyl-1,2,4-triazol-1-yl)-2-azaspiro[3.3]heptan-2-yl]-[7-[[5-(trifluoromethyl)-2-pyridyl]methyl]-2,7-diazaspiro[3.4]octan-2-yl]methanone]: the negative-log IC50 (pIC50) is 8.43.

For the compound `O=C(N1CC(C23CC(CNC4(C(F)(F)F)CC4)(C2)C3)C1)N1CC2(CC(n3cnc(C4CC4)n3)C2)C1` [Example 444, [6-(3-cyclopropyl-1,2,4-triazol-1-yl)-2-azaspiro[3.3]heptan-2-yl]-[3-[3-[[[1-(trifluoromethyl)cyclopropyl]amino]methyl]-1-bicyclo[1.1.1]pentanyl]azetidin-1-yl]methanone], the pIC50 was 10.30.
